This is an account of results in patent US11377425B1, “Small molecule modulators of IL-17” (LEO Pharma A/S, priority 2018, dated 2022).

A short description of series [1]: In vivo dosing of compounds in mouse (pharmacokinetics, PO and i.v.). The conditions noted are these: female, Balb/C, whole blood, oral dose of Example 32 50 mg/kg. As for the experimental part: Example 140. In Vivo Dosing of Compounds in Mouse
Mouse pharmacokinetics of Examples 32 and 135 were studied in female Balb/C mice. Animals were not fasted prior to the study and had access to water and certified rodent diet ad libitum during the study. The mice were weighed on the day of the study and the individual dose volumes were adjusted on a per kg body weight basis.
Oral dosing. The mice were dosed by oral gavage. Example 135 was dosed as a suspension in 1% methyl cellulose solution (10 mL/kg). Example 32 was dosed as a suspension in a formulation containing Betadex sulfobutyl ether sodium/PVP (polyvinyl pyrrolidone)/0.1% Citrate buffer pH 3 (20:5:75) (10 mL/kg).
Intravenous dosing. The mice were dosed i.v. via the tail vein. The dose volume was 2 mL/kg of a solution of Example 32 (0.2 mg/mL) in DMSO/ethanol/water/propylene glycol (PG) (2:8:50:40).
Study samples. Blood was collected (exactly 20 μL per time point) from the saphenous vein of each animal into K2EDTA-coated capillaries. […] The compounds were quantified in blood by means of LC-MS/MS.
Standard PK parameters were calculated using non-compartmental analysis in Phoenix WinNonLin 6.4 (Certara, Princeton, N.J.)
(§1) The bioavailabilty (F) was calculated using the equation below, where AUC is the area under the curve for the oral and i.v. dosing routes and D is the dose given i.v. or orally. […]

Another series addresses T1, human IL-17AA (Homo sapiens, UniProt Q16552).
T1 construct: host or cells: HEK (human embryonic kidney) cells
T1 sequence (Q16552 24-155): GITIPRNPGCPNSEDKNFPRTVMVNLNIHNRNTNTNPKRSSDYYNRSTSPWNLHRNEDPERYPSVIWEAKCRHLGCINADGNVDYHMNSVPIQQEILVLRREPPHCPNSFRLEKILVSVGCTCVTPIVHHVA
Put plainly: IL-8 release assay in human epithelial keratinocytes adult (HEKa). The conditions noted are these: HEKa cells, 3 ng/mL HEK-human IL-17AA + 10 ng/mL human TNFalpha; read-out: Rel EC50 IL-8 release assay. The series is classed as cell-based. In a few lines:
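IL-8 release, quantified by HTRF and normalized to controls, reports IL-17 signaling in HEKa cells treated with compound plus final 3 ng/mL IL-17AA (HEK-derived) and 10 ng/mL TNF-alpha for 68-72 h; TNF-alpha-only wells set 100% inhibition. Four-parameter logistic fits (r^2>0.9) give relative IC50 and Emax; PrestoBlue flags cytotoxicity.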

Series [2] is described as follows: In vivo dosing of compounds in dog (pharmacokinetics, PO and i.v.). Details: species or system dog (male Beagles). The conditions noted are these: male, Beagle, whole blood, oral dose of Example 32 1 mg/kg. The method, then:
Example 139. In Vivo Dosing of Compounds in Dog
Dog pharmacokinetics (PK) of Examples 32 and 135 were studied in male Beagles. On the day of dosing, the animals were fasted overnight. They had free access to drinking water, except in immediate connection with dosing, and were allowed to eat from 4 hrs after dosing and onwards. The dogs were weighed on the morning prior to dosing and the individual dose volumes were adjusted on a per kg body weight basis.
Oral dosing. The dogs were dosed PO by oral gavage. The test compounds were dosed as suspensions in 1% methyl cellulose solution (2.5 mL/kg). The stomach tube was then flushed with at least 15 mL water post-dose to ensure that all test formulation entered the stomach.
Intravenous dosing. The dogs were dosed i.v. via an in-dwelling catheter in venae cephalica. The dose volume was 1 mL/kg of a solution of Example 32 (0.3 mg/mL) in HPB (hydroxypropyl beta cyclodextrin)/PEG-4 (polyethylene glycol-4)/water (20:20:60). […]
Study samples. […] The compounds were quantified in blood by means of LC-MS/MS.
Standard PK parameters were calculated using non-compartmental analysis and Phoenix WinNonLin 6.4 (Certara, Princeton, N.J.).
as §1

Molecules are shown by their SMILES.

As usually defined, the bioavailability is dose-corrected exposure relative to a reference, in per cent. In general, EC50 refers to the concentration at which the effect is half-maximal. Take `Cc1n[nH]c(C)c1-c1ccc(NC(=O)[C@@H](NC(=O)c2ccnn2C(C)C)C(C2CC2)C2CC2)cc1` (single isomer, unassigned) [Example 32]: the results for the bioavailability in series [1] and in series [2] were 26% and 23%, respectively. For the same compound, the EC50 on human IL-17AA was under 100 nM.

Turning to `Cc1n[nH]c(C)c1-c1ccc(NC(=O)[C@@H](NC(=O)N2CCCC2C(C)C)C2CCCCC2)cc1` (stereo partly drawn) [Example 475, N-[(1S)-1-cyclohexyl-2-[4-(3,5-dimethyl-1H-pyrazol-4-yl)anilino]-2-oxo-ethyl]-2-isopropyl-pyrrolidine-1-carboxamide], the EC50 at human IL-17AA was over 1000 nM.

With `Cc1n[nH]c(C)c1-c1ccc(NC(=O)[C@@H](NC(=O)N(C)CCCCO)C2CCCCC2)cc1` [Example 476, (2S)-2-cyclohexyl-N-[4-(3,5-dimethyl-1H-pyrazol-4-yl)phenyl]-2-[[4-hydroxybutyl(methyl)carbamoyl]amino]acetamide], at human IL-17AA, the EC50 is 100 to 1000 nM.

Take `Cc1n[nH]c(C)c1-c1ccc(NC(=O)[C@@H](NC(=O)N2CCCC2)C2CCCCC2)cc1` [Example 477, N-[(1S)-1-cyclohexyl-2-[4-(3,5-dimethyl-1H-pyrazol-4-yl)anilino]-2-oxo-ethyl]pyrrolidine-1-carboxamide]: at human IL-17AA, the EC50 was over 1000 nM.

For the compound `Cc1n[nH]c(C)c1-c1ccc(NC(=O)[C@@H](NC(=O)N2CCOCC2)C2CCCCC2)cc1` [Example 478, N-[(1S)-1-cyclohexyl-2-[4-(3,5-dimethyl-1H-pyrazol-4-yl)anilino]-2-oxo-ethyl]morpholine-4-carboxamide], on human IL-17AA, the EC50 is over 1000 nM.

For the compound `Cc1n[nH]c(C)c1-c1ccc(NC(=O)[C@@H](NC(=O)OCCCCO)C(C2CC2)C2CC2)cc1` [Example 479, 4-hydroxy butyl N-[(1S)-1-(dicyclopropylmethyl)-2-[4-(3,5-dimethyl-1H-pyrazol-4-yl)anilino]-2-oxo-ethyl]carbamate], the EC50 at human IL-17AA lay within 100 to 1000 nM.

With `Cc1n[nH]c(C)c1-c1ccc(NC(=O)[C@@H](NC(=O)O[C@H](C)CC[C@@H](C)O)C(C2CC2)C2CC2)cc1` [Example 480, [(1R,4R)-4-hydroxy-1-methyl-pentyl] N-[(1S)-1-(dicyclopropylmethyl)-2-[4-(3,5-dimethyl-1H-pyrazol-4-yl)anilino]-2-oxo-ethyl]carbamate], the EC50 at human IL-17AA was 100 to 1000 nM.

For `Cc1n[nH]c(C)c1-c1ccc(NC(=O)[C@@H](NC(=O)O[C@@H](C)CC[C@H](C)O)C(C2CC2)C2CC2)cc1` [Example 481, [(1S,4S)-4-hydroxy-1-methyl-pentyl] N-[(1S)-1-(dicyclopropylmethyl)-2-[4-(3,5-dimethyl-1H-pyrazol-4-yl)anilino]-2-oxo-ethyl]carbamate], the EC50 at human IL-17AA is over 1000 nM.

For `Cc1nn(COP(=O)(O)O)c(C)c1-c1ccc(NC(=O)[C@@H](NC(=O)c2ccnn2[C@@H](C)CO)C(C2CC2)C2CC2)cc1` [Example 483, Disodium [4-[4-[[(2S)-3,3-dicyclopropyl-2-[[2-[(1S)-2-hydroxy-1-methyl-ethyl]pyrazole-3-carbonyl]amino]propanoyl]amino]phenyl]-3,5-dimethyl-pyrazol-1-yl]methyl phosphate], the EC50 at human IL-17AA was under 100 nM.
